# Source: patent publication US11685744B2, “CDK inhibitors and their use as pharmaceuticals” (Prelude Therapeutics, Incorporated, priority 2020, dated 2023)
# Like-named read-outs stand apart in the source and are kept apart here.
# Experiments:
# [1] = Brain-to-plasma ratio (Kp) determination in Sprague-Dawley rats; conditions: male, rat, po, 10 mg/kg
# [2] = test system: MCF7 adenocarcinoma cell line; test: Cell proliferation studies in MCF7 cells (ATP-Lite, 10 days); format: cell-based; conditions: read-out: PROLIFERATION_CTG_MCF7 IC50
# In short: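 Cells were seeded at 100 or 200 per well in DMEM with 10% FBS and dosed in quadruplicate over a 9-point 3-fold dilution. Incubation lasted 10 days at 37 °C, with media exchange and re-dosing on day 5. Viability was read by ATP-Lite luminescence and normalised to background and DMSO, giving IC50.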
# CDK4/Cyclin D1 = CDK4/Cyclin D1 (Homo sapiens (Human), UniProt P11802); test: CDK4/CyclinD1 enzymatic activity assay (TR-FRET); format: biochemical; conditions: ATP 2 mM, read-out: CDK4_D1 IC50
# In short: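 Insect-cell CDK4/Cyclin D1 (1 nM) with ULight-4E-BP1 (100 nM) and 2 mM ATP in HEPES pH 7.4 buffer, preincubated 20 min with compound (9-dose, 3-fold dilutions); 10 mM MgCl2 started the reaction, run 60 min at 37 °C. EDTA/Eu-anti-phospho-4E-BP1 TR-FRET detection; IC50 from 4-parameter Hill fit.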
# CDK6/Cyclin D1 = CDK6/Cyclin D1 (Homo sapiens (Human), UniProt Q00534); test: CDK6/CyclinD1 enzymatic activity assay (TR-FRET); format: biochemical; conditions: ATP 250 μM, read-out: CDK6_D1 IC50
# Experimental: CDK6/CyclinD1 Enzymatic Activity Assay
# The inhibitory activity of compounds was evaluated in vitro using TR-FRET assay with white 384-well low volume microplate (Greiner Bio-One). CDK6/Cyclin D1 catalyzed phosphorylation of peptide in the presence and absence of compounds was measured and used in IC50 determination. Recombinant protein complex CDK6/Cyclin D1, expressed from insect cell, was purchased from ProQinase. Testing compounds were dissolved in DMSO at 0.1 mM and tested in 9-dose IC50 mode. The reaction mixture was prepared by mixing CDK6/Cyclin D1 (1 nM final), ULight-4E-BP1 (100 nM final, Perkinelmer, TRF0128-D), and ATP (250 μM final) in assay buffer (20 mM of HEPES pH 7.4, 1 mM of EGTA, 0.05% BSA, 0.005% Tween 20, and 1 mM TCEP). The compound of interest in DMSO was added to each well in 3-fold serial dilution by dispenser (TECAN D300E). After 20 minutes preincubation at room temperature, 0.1 μL MgCl2 (10 mM final) was added to initiate the reaction. Following a 60 minutes incubation at 37° C., the reaction was stopped by addition of 2 μL of quenching buffer consisting of Lance detection buffer (Perkinelmer CR97-100C), 2 nM LANCE Ultra Europium-anti-P-4E-BP1 (Perkinelmer, TRF0216-D), 10 mM EDTA, and incubate at room temperature for additional 60 minutes in dark. The reaction signal was measured by Envision multimode plate reader (PerkinElmer, 2102-0010). IC50 values were determined by fitting the data to the standard 4 parameters with Hill Slope using GraphPad Prism software.
# [3] = brain (homogenate) versus plasma
# Chain of CDK4/Cyclin D1 (P11802 whole entry): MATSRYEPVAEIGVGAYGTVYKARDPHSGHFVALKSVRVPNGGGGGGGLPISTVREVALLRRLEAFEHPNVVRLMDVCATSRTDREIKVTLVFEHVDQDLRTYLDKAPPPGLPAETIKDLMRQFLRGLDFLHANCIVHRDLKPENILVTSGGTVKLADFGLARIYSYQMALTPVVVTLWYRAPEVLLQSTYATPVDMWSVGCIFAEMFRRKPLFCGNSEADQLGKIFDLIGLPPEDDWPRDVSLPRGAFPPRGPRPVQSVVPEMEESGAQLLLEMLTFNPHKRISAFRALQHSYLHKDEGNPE
# Chain of CDK4/Cyclin D1 (P24385 whole entry partner): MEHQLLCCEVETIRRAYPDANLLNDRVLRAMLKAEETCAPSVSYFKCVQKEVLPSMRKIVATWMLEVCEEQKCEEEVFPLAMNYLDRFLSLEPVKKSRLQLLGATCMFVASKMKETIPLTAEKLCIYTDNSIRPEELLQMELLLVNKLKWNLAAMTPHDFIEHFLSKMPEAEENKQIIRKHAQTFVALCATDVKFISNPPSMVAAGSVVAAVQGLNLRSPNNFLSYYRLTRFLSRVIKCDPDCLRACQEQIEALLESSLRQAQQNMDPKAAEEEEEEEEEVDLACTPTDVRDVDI
# Chain of CDK6/Cyclin D1 (Q00534 whole entry): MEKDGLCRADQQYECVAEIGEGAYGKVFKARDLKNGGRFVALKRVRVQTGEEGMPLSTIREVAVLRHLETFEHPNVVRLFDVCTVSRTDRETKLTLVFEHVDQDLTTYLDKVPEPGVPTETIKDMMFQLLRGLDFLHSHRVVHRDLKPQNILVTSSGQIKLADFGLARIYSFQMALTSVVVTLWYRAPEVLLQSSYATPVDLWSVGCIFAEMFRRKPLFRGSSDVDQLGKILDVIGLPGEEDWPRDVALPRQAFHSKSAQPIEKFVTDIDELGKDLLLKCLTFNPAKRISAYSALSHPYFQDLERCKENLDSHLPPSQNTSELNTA
# Chain of CDK6/Cyclin D1 (P24385 whole entry partner): as the sequence (P24385 whole entry partner) above
SMILES,"Kp at 4 h [1, 3]","IC50 ([2]; Homo sapiens, 240 h)",IC50 (CDK4/Cyclin D1),IC50 (CDK6/Cyclin D1),Kp at 4 h ([1]; brain / plasma),IC50 [2]
"CCN1C2CC1CN(c1ccc(Nc3ncc(F)c(-c4cc5c(=O)n(C)cc(C(C)C)c5s4)n3)nc1)C2 [Example 58, 2-(2-((5-(6-Ethyl-3,6-diazabicyclo[3.1.1]heptan-3-yl)pyridin-2-yl)amino)-5-fluoropyrimidin-4-yl)-7-isopropyl-5-methylthieno[3,2-c]pyridin-4(5H)-one]",,0.02 to 0.2 µM,≤ 0.02 µM,0.02 to 0.2 µM,,
"Cc1nc2cc(-c3nc(Nc4ccc(N5CC(N(C)C)C5)cn4)ncc3F)sc2n1C(C)C [Example 72, N-[5-[3-(Dimethylamino)azetidin-1-yl]pyridin-2-yl]-5-fluoro-4-(2-methyl-3-propan-2-ylthieno[2,3-d]imidazol-5-yl)pyrimidin-2-amine]",,0.02 to 0.2 µM,≤ 0.02 µM,≤ 0.02 µM,,
"Cc1c(-c2nc(Nc3ccc(N4CCN(C)CC4=O)cn3)ncc2F)sc2c1nc(C)n2C(C)C [Example 75, 1-[6-[[4-(2,6-Dimethyl-3-propan-2-ylthieno[2,3-d]imidazol-5-yl)-5-fluoropyrimidin-2-yl]amino]pyridin-3-yl]-4-methylpiperazin-2-one]",,≤ 0.02 µM,≤ 0.02 µM,≤ 0.02 µM,,
"Cc1c(-c2nc(Nc3ccc(N4CCN(CC(F)(F)F)CC4)cn3)ncc2F)sc2c(C(C)C)cn(C)c(=O)c12 [Example 80, 2-(5-Fluoro-2-((5-(4-(2,2,2-trifluoroethyl)piperazin-1-yl)pyridin-2-yl)amino)pyrimidin-4-yl)-7-isopropyl-3,5-dimethylthieno[3,2-c]pyridin-4(5H)-one]",,0.2 to 2 µM,0.02 to 0.2 µM,0.02 to 0.2 µM,,
"CCN1CC2CC1CN2c1ccc(Nc2ncc(F)c(-c3cc4c(=O)n(C)cc(C(C)C)c4s3)n2)nc1 (stereo not shown) [Example 81, 2-(2-((5-(5-Ethyl-2,5-diazabicyclo[2.2.1]heptan-2-yl)pyridin-2-yl)amino)-5-fluoropyrimidin-4-yl)-7-isopropyl-5-methylthieno[3,2-c]pyridin-4(5H)-one]",,0.02 to 0.2 µM,≤ 0.02 µM,≤ 0.02 µM,,
"[2H]C([2H])([2H])n1cc(C(C)C)c2sc(-c3nc(Nc4ccc(C5CCN(C)CC5)cn4)ncc3F)c(C)c2c1=O [Example 85, 2-(5-Fluoro-2-((5-(1-methylpiperidin-4-yl)pyridin-2-yl)amino)pyrimidin-4-yl)-7-isopropyl-3-methyl-5-(methyl-d3)thieno[3,2-c]pyridin-4(5H)-one]",> 3,0.02 to 0.2 µM,≤ 0.02 µM,,,
"Cc1c(-c2nc(Nc3ccc(N4CC5(C4)CN(C(C)C)C5)cn3)ncc2F)sc2c(C(C)C)cn(C)c(=O)c12 [Example 92, 2-(5-Fluoro-2-((5-(6-isopropyl-2,6-diazaspiro[3.3]heptan-2-yl)pyridin-2-yl)amino)pyrimidin-4-yl)-7-isopropyl-3,5-dimethylthieno[3,2-c]pyridin-4(5H)-one]",,0.02 to 0.2 µM,≤ 0.02 µM,≤ 0.02 µM,,
"Cc1c(-c2nc(Nc3ccc(C4CCNCC4)cn3)ncc2F)sc2c(C(C)C)cn(C)c(=O)c12 [Example 94, 2-(5-Fluoro-2-((5-(piperidin-4-yl)pyridin-2-yl)amino)pyrimidin-4-yl)-7-isopropyl-3,5-dimethylthieno[3,2-c]pyridin-4(5H)-one]",,0.02 to 0.2 µM,≤ 0.02 µM,≤ 0.02 µM,,
"Cc1c(-c2nc(Nc3ccc(C4CN(C)C4)cn3)ncc2F)sc2c1nc(C)n2C(C)C [Example 108, 5-Fluoro-4-(3-isopropyl-2,6-dimethyl-3H-thieno[2,3-d]imidazol-5-yl)-N-(5-(1-methylazetidin-3-yl)pyridin-2-yl)pyrimidin-2-amine]",,0.02 to 0.2 µM,≤ 0.02 µM,0.02 to 0.2 µM,,
"CCN1CC2(C1)CN(c1ccc(Nc3ncc(F)c(-c4cc5c(=O)n(C)nc(C6CN(C(=O)OC(C)(C)C)C6)c5s4)n3)nc1)C2 [Example 109, tert-Butyl 3-(2-(2-((5-(6-ethyl-2,6-diazaspiro[3.3]heptan-2-yl)pyridin-2-yl)amino)-5-fluoropyrimidin-4-yl)-5-methyl-4-oxo-4,5-dihydrothieno[2,3-d]pyridazin-7-yl)azetidine-1-carboxylate]",,0.02 to 0.2 µM,≤ 0.02 µM,0.02 to 0.2 µM,,
"CCN1CCN(c2ccc(Nc3ncc(F)c(-c4sc5c(C(C)C)ccnc5c4C(F)(F)F)n3)nc2)CC1 [Example 121, N-[5-(4-Ethylpiperazin-1-yl)pyridin-2-yl]-5-fluoro-4-[7-propan-2-yl-3-(trifluoromethyl)thieno[3,2-b]pyridin-2-yl]pyrimidin-2-amine]",,0.02 to 0.2 µM,≤ 0.02 µM,0.02 to 0.2 µM,,

# Results, then the compound that gave them:
"Kp at 4 h [1, 3]","IC50 ([2]; Homo sapiens, 240 h)",IC50 (CDK4/Cyclin D1),IC50 (CDK6/Cyclin D1),Kp at 4 h ([1]; brain / plasma),IC50 [2],SMILES
1 to 3,0.02 to 0.2 µM,≤ 0.02 µM,≤ 0.02 µM,,,"Cc1c(-c2nc(Nc3ccc(C4CCCN(C)C4)cn3)ncc2F)sc2c1ncn2C(C)C (single isomer, unassigned) [Example 125, 5-Fluoro-N-[5-[-1-methylpiperidin-3-yl]pyridin-2-yl]-4-(6-methyl-3-propan-2-ylthieno[2,3-d]imidazol-5-yl)pyrimidin-2-amine]"
1 to 3,0.02 to 0.2 µM,≤ 0.02 µM,,,,"CCN1CCC(c2ccc(Nc3ncc(F)c(-c4sc5c(nc(C)n5C5CCC5)c4C)n3)nc2)CC1 [Example 8, 4-(3-Cyclobutyl-2,6-dimethyl-3H-thieno[2,3-d]imidazol-5-yl)-N-(5-(1-ethylpiperidin-4-yl)pyridin-2-yl)-5-fluoro-pyrimidin-2-amine]"
,0.02 to 0.2 µM,≤ 0.02 µM,,< 1,,"CCN1CC2(C1)CN(c1ccc(Nc3ncc(F)c(-c4cc5nccc(C(C)(C)O)c5s4)n3)nc1)C2 [Example 21, 2-[2-[2-[[5-(6-Ethyl-2,6-diazaspiro[3.3]heptan-2-yl)pyridin-2-yl]amino]-5-fluoropyrimidin-4-yl]thieno[3,2-b]pyridin-7-yl]propan-2-ol]"
,0.02 to 0.2 µM,≤ 0.02 µM,≤ 0.02 µM,,,"CCN1CC2(C1)CN(c1ccc(Nc3ncc(F)c(-c4sc5c(nc(C)n5C(C)C)c4C)n3)nn1)C2 [Example 53, 6-(6-Ethyl-2,6-diazaspiro[3.3]heptan-2-yl)-N-(5-fluoro-4-(3-isopropyl-2,6-dimethyl-3H-thieno[2,3-d]imidazol-5-yl)pyrimidin-2-yl)pyridazin-3-amine]"
,0.02 to 0.2 µM,≤ 0.02 µM,0.02 to 0.2 µM,,,"CCN1CCN(C(=O)c2ccc(Nc3ncc(F)c(-c4cc5c(=O)n(C)cc(C(C)C)c5s4)n3)nc2)CC1 [Example 59, 2-(2-((5-(4-Ethylpiperazine-1-carbonyl)pyridin-2-yl)amino)-5-fluoropyrimidin-4-yl)-7-isopropyl-5-methylthieno[3,2-c]pyridin-4(5H)-one]"
,0.02 to 0.2 µM,≤ 0.02 µM,≤ 0.02 µM,,,"CCN1CC2(C1)CN(c1ccc(Nc3ncc(F)c(-c4sc5c(c4C)c(=O)ncn5C(C)C)n3)nc1)C2 [Example 62, 6-(2-((5-(6-Ethyl-2,6-diazaspiro[3.3]heptan-2-yl)pyridin-2-yl)amino)-5-fluoropyrimidin-4-yl)-1-isopropyl-5-methylthieno[2,3-d]pyrimidin-4(1H)-one]"
,0.02 to 0.2 µM,≤ 0.02 µM,≤ 0.02 µM,,,"Cc1c(-c2nc(Nc3ccc(N4CC5(CCN5C)C4)cn3)ncc2F)sc2c1nc(C)n2C(C)C [Example 67, 4-(2,6-Dimethyl-3-propan-2-ylthieno[2,3-d]imidazol-5-yl)-5-fluoro-N-[5-(1-methyl-1,6-diazaspiro[3.3]heptan-6-yl)pyridin-2-yl]pyrimidin-2-amine]"
,,≤ 0.02 µM,0.02 to 0.2 µM,,0.02 to 0.2 µM,"CCN1CC2(C1)CN(C(=O)c1ccc(Nc3ncc(F)c(-c4cc5nc(C)n(C(C)C)c5s4)n3)nc1)C2 [Example 71, (6-Dthyl-2,6-diazaspiro[3.3]heptan-2-yl)-[6-[[5-fluoro-4-(2-methyl-3-propan-2-ylthieno[2,3-d]imidazol-5-yl)pyrimidin-2-yl]amino]pyridin-3-yl]methanone]"
